Data: PubChem BioAssay (NCI)
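Exposure lasted 48 hours, with cells grown in 96-well plates and compounds tested at five concentrations. Abbreviation: GI50, concentration required for 50% inhibition of growth. TGI denotes the concentration required for complete inhibition of growth.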

Legend:
Test in all cases: NCI anticancer screen, dose series, 48 h
[1] = test system: MCF7 breast
[2] = test system: IGROV1 ovarian
[3] = test system: UACC-62 melanoma
[4] = test system: UACC-257 melanoma
[5] = test system: NCI-H23 lung
[6] = test system: NCI-H226 lung
[7] = test system: HCT-15 colon
[8] = test system: MDA-MB-435
[9] = test system: HS 578T breast
[10] = test system: PC-3 prostate
[11] = test system: A549 NSCLC
[12] = test system: SK-MEL-5 melanoma
[13] = test system: EKVX NSCLC
[14] = test system: CAKI-1 renal
[15] = test system: DU-145 prostate
[16] = test system: OVCAR-8 ovarian
[17] = test system: SF-268 CNS
[18] = test system: 786-0 renal
[19] = test system: NCI-H522 lung
[20] = test system: OVCAR-4 ovarian
[21] = test system: KM12 colon
[22] = test system: NCI/ADR-RES ovarian
[23] = test system: SN12C renal
[24] = test system: TK-10 renal
[25] = test system: BT-549 breast
[26] = test system: SW-620 colon
[27] = test system: HCT-116 colon
[28] = test system: RXF 393 renal
[29] = test system: MALME-3M melanoma
[30] = test system: ACHN renal
[31] = test system: HT29 colon
[32] = test system: CCRF-CEM leukemia
[33] = test system: HOP-62 NSCLC
[34] = test system: UO-31 renal
[35] = test system: RPMI-8226 leukemia
[36] = test system: SK-OV-3 ovarian
[37] = test system: SNB-75 CNS
[38] = test system: SK-MEL-28 melanoma
[39] = test system: T-47D breast
[40] = test system: SF-539 CNS
[41] = test system: M14 melanoma
[42] = test system: U251 CNS
[43] = test system: MOLT-4 leukemia
[44] = test system: MDA-MB-231 breast
[45] = test system: OVCAR-5 ovarian
[46] = test system: SK-MEL-2 melanoma
[47] = test system: NCI-H460 lung
[48] = test system: A498 renal
[49] = test system: LOX IMVI melanoma
[50] = test system: OVCAR-3 ovarian
[51] = test system: HOP-92 NSCLC
[52] = test system: HL-60(TB) leukemia
[53] = test system: HCC-2998 colon
[54] = test system: SR leukemia
[55] = test system: COLO 205 colon
[56] = test system: K-562 leukemia
[57] = test system: SF-295 CNS
[58] = test system: SNB-19 CNS

## CN(C)CCCNc1nccc(-c2c(-c3ccc(F)cc3)nn3cc(C(F)(F)F)ccc23)n1
[1]
  GI50: 7.77 µM
  TGI: > 18.2 µM
[2]
  GI50: 10.2 µM
  TGI: > 25 µM
[3]
  GI50: 4.88 µM
  TGI: 11.1 µM
[4]
  GI50: 4.22 µM
  TGI: 8.42 µM
[5]
  GI50: > 25 µM
  TGI: > 25 µM
[6]
  GI50: 3.72 µM
  TGI: 11.2 µM
[7]
  GI50: 7.26 µM
  TGI: > 25 µM
[8]
  GI50: 5.46 µM
  TGI: 15.2 µM
[9]
  GI50: 7.7 µM
  TGI: > 25 µM
[10]
  GI50: 9.36 µM
  TGI: > 25 µM
[11]
  GI50: > 21.5 µM
  TGI: > 25 µM
[12]
  GI50: 3.48 µM
  TGI: 6.75 µM
[13]
  GI50: 18.8 µM
  TGI: > 25 µM
[14]
  GI50: 12.3 µM
  TGI: > 25 µM
[15]
  GI50: > 16.6 µM
  TGI: > 25 µM
[16]
  GI50: > 20.1 µM
  TGI: > 25 µM
[17]
  GI50: 9.79 µM
  TGI: > 25 µM
[18]
  GI50: 7.69 µM
  TGI: > 25 µM
[19]
  GI50: 6.77 µM
  TGI: > 25 µM
[20]
  GI50: 11 µM
  TGI: > 25 µM
[21]
  GI50: 8.3 µM
  TGI: > 25 µM
[22]
  GI50: 8.48 µM
  TGI: > 25 µM
[23]
  GI50: 15.3 µM
  TGI: > 25 µM
[24]
  GI50: 12.9 µM
  TGI: > 25 µM
[25]
  GI50: > 23.4 µM
  TGI: > 25 µM
[26]
  GI50: 7.33 µM
  TGI: > 25 µM
[27]
  GI50: 8.66 µM
  TGI: > 25 µM
[28]
  GI50: 3.34 µM
  TGI: 9.6 µM
[29]
  GI50: 4.32 µM
  TGI: 9.36 µM
[30]
  GI50: 10.3 µM
  TGI: > 25 µM
[31]
  GI50: 6.58 µM
  TGI: > 23.9 µM
[32]
  GI50: 8.08 µM
  TGI: > 25 µM
[33]
  GI50: 8.53 µM
  TGI: > 25 µM
[34]
  GI50: 2.91 µM
  TGI: > 25 µM
[35]
  GI50: 10.2 µM
  TGI: > 25 µM
[36]
  GI50: 20.1 µM
  TGI: > 25 µM
[37]
  GI50: 5.97 µM
  TGI: > 16.9 µM
[38]
  GI50: 4.29 µM
  TGI: 8.49 µM
[39]
  GI50: 12.5 µM
  TGI: > 25 µM
[40]
  GI50: 15.5 µM
  TGI: > 25 µM
[41]
  GI50: 4.37 µM
  TGI: 9.06 µM
[42]
  GI50: 10.7 µM
  TGI: > 25 µM
[43]
  GI50: 6.37 µM
  TGI: 17.3 µM
[44]
  GI50: 3.83 µM
  TGI: 11.1 µM
[45]
  GI50: 11.2 µM
  TGI: > 25 µM
[46]
  GI50: 5.33 µM
  TGI: 14.2 µM
[47]
  GI50: 6.97 µM
  TGI: > 25 µM
[48]
  GI50: 6.53 µM
  TGI: > 25 µM
[49]
  GI50: 5.06 µM
  TGI: 15.2 µM
[50]
  GI50: 8.88 µM
  TGI: > 25 µM
[51]
  GI50: 3.61 µM
  TGI: > 25 µM
[52]
  GI50: 4.55 µM
  TGI: 10.9 µM
[53]
  GI50: 4.54 µM
  TGI: 15 µM
[54]
  GI50: 5.15 µM
  TGI: 12.6 µM
[55]
  GI50: 4.23 µM
  TGI: 8.71 µM
[56]
  GI50: 4.81 µM
  TGI: 14.2 µM
[57]
  GI50: 6.91 µM
  TGI: > 17.2 µM
[58]
  GI50: > 19.6 µM
  TGI: > 25 µM
